The text below walks through data of paper PMC6364417, “Kinase inhibitor library screening identifies synergistic drug combinations effective in sensitive and resistant melanoma cells” (Journal of Experimental & Clinical Cancer Research : CR, 2019).

Experiment in all cases: Kinase inhibitor library screening, PrestoBlue cell viability, 1 or 10 μM, 72 h
Assay [1] relates to 501Mel-XP cells (Vemurafenib-resistant).
Assay [2] relates to IGR37-GP cells (Dabrafenib-resistant).
Assay [3] deals with 501Mel cells (parental). Summed up: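 Kinase inhibitors added at two fixed concentrations; 72 h exposure; PrestoBlue readout; % viability vs untreated; n ≥ 2 per line.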
The test system of assay [4] is 501Mel-GP cells (Dabrafenib-resistant).
In assay [5] the test system is IGR37-XP cells (Vemurafenib-resistant).
Assay [6] has as its system A375 cells (parental). The note with it: for cell viability (kinase inhibitor library screening): in %.
For assay [7], the system named is A375-XP cells (Vemurafenib-resistant). The note with it: for cell viability (kinase inhibitor library screening): in %.
For assay [8], the system named is A375-GP cells (Dabrafenib-resistant). The note with it: for cell viability (kinase inhibitor library screening): in %.
Assay [9] relates to IGR37 cells (parental).

Take `CN(C)CCOc1ccc(-c2nc(-c3ccncc3)c(-c3ccc4c(c3)CC/C4=N\O)[nH]2)cc1` [SB590885]: the “cell viability (kinase inhibitor library screening)” value is 121.3 in [1] (501Mel XP, 1μΜ, in %); 0.7 in [1] (501Mel XP, 10μΜ, in %); 79.6 in assay [2] (IGR37 GP, 10μΜ, in %); 74.7 in [3] (501Mel Parental, 1μΜ, in %); 0.649 in [3] (501Mel Parental, 10μΜ, in %); 110.5 in assay [4] (501Mel GP, 1μΜ, in %). Further, the “cell viability (kinase inhibitor library screening)” value came out at 0.56 in assay [4] (501Mel GP, 10μΜ, in %); 30.0 in assay [5] (IGR37 XP, 10μΜ, in %); 38.0 in assay [6] (A375 Parental, 1μΜ); 33.1 in assay [6] (A375 Parental, 10μΜ); 71.7 in [7] (A375 XP, 1μΜ); 18.9 in [7] (A375 XP, 10μΜ). The “cell viability (kinase inhibitor library screening)” value in [8] (A375 GP, 1μΜ) was determined as 73.8; in assay [8] (A375 GP, 10μΜ) it was 25.8; in assay [9] (IGR37 Parental, 1μΜ, in %) it was 52.0; in assay [9] (IGR37 Parental, 10μΜ, in %), 40.7.
Consider `CC[C@@H]1C(=O)N(C)c2cnc(Nc3ccc(C(=O)NC4CCN(C)CC4)cc3OC)nc2N1C1CCCC1` [BI 2536], for which the “Cell viability in kinase inhibitor library screening, 501Mel XP, 1μΜ” value in assay [1] (501Mel XP, 1μΜ, 72 h, in %) amounted to 29.2. Also, the “Cell viability in kinase inhibitor library screening, 501Mel XP, 10μΜ” value in assay [1] (501Mel XP, 10μΜ, 72 h, in %) is given as -0.237. The same molecule came in with a Cell viability in kinase inhibitor library screening, IGR37 GP, 10μΜ in assay [2] (IGR37 GP, 10μΜ, 72 h) of 2.8%. Moreover, the “Cell viability in kinase inhibitor library screening, IGR37 GP, 1μΜ” value in [2] (IGR37 GP, 1μΜ, 72 h, in %) came to 82.9. Also, the “Cell viability in kinase inhibitor library screening, 501Mel Parental, 1μΜ” value in assay [3] (501Mel Parental, 1μΜ, 72 h, in %) was 77.3. Besides, in assay [3] (501Mel Parental, 10μΜ, 72 h, in %), the “Cell viability in kinase inhibitor library screening, 501Mel Parental, 10μΜ” value is reported as 1.6. Also, the “Cell viability in kinase inhibitor library screening, 501Mel GP, 1μΜ” value in [4] (501Mel GP, 1μΜ, 72 h, in %) amounted to 52.3. Moreover, in assay [4] (501Mel GP, 10μΜ, 72 h, in %), the “Cell viability in kinase inhibitor library screening, 501Mel GP, 10μΜ” value is 0.263. For the same molecule, the Cell viability in kinase inhibitor library screening, IGR37 XP, 10μΜ in assay [5] (IGR37 XP, 10μΜ, 72 h) was found to be 1.5%. Moreover, in assay [5] (IGR37 XP, 1μΜ, 72 h, in %), the “Cell viability in kinase inhibitor library screening, IGR37 XP, 1μΜ” value came to 76.3. The “Cell viability in kinase inhibitor library screening, A375 Parental, 10μΜ” value in [6] (A375 Parental, 10μΜ, 72 h) is listed as 30.1. The “Cell viability in kinase inhibitor library screening, A375 Parental, 1μΜ” value in [6] (A375 Parental, 1μΜ, 72 h) is listed as 31.0. For the same molecule, the “Cell viability in kinase inhibitor library screening, A375 XP, 1μΜ” value in assay [7] (A375 XP, 1μΜ, 72 h) is given as 42.2. Further, the “Cell viability in kinase inhibitor library screening, A375 XP, 10μΜ” value in assay [7] (A375 XP, 10μΜ, 72 h) turned out to be 8.5. Further, the “Cell viability in kinase inhibitor library screening, A375 GP, 1μΜ” value in assay [8] (A375 GP, 1μΜ, 72 h) was found to be 31.1. Besides, in assay [8] (A375 GP, 10μΜ, 72 h), the “Cell viability in kinase inhibitor library screening, A375 GP, 10μΜ” value was 15.5. For the same molecule, in assay [9] (IGR37 Parental, 1μΜ, 72 h, in %), the “Cell viability in kinase inhibitor library screening, IGR37 Parental, 1μΜ” value was determined as 71.6. Moreover, in assay [9] (IGR37 Parental, 10μΜ, 72 h, in %), the “Cell viability in kinase inhibitor library screening, IGR37 Parental, 10μΜ” value was 1.3.
`C[C@@H]1COC(Nc2ccc3ncnc(Nc4ccc(OCc5nccs5)c(Cl)c4)c3c2)=N1` [ARRY334543]: the viability at 1 µM was 118% in assay [1] (Homo sapiens, 72 h, read-out: cell viability, 501Mel XP, 1μΜ); 89.4% in [2] (Homo sapiens, IGR-37, 72 h, read-out: cell viability, IGR37 GP, 1μΜ); 97.9% in assay [3] (Homo sapiens, 72 h, read-out: cell viability, 501Mel Parental, 1μΜ); 101% in [4] (Homo sapiens, 72 h, read-out: cell viability, 501Mel GP, 1μΜ); 71.6% in [5] (Homo sapiens, IGR-37, 72 h, read-out: cell viability, IGR37 XP, 1μΜ); 103% in assay [6] (Homo sapiens, A-375, 72 h, read-out: cell viability, A375 Parental, 1μΜ). Also, the viability at 1 µM in assay [7] (Homo sapiens, A-375, 72 h, read-out: cell viability, A375 XP, 1μΜ) worked out at 107%; in assay [8] (Homo sapiens, A-375, 72 h, read-out: cell viability, A375 GP, 1μΜ), 101%; in assay [9] (Homo sapiens, IGR-37, 72 h, read-out: cell viability, IGR37 Parental, 1μΜ) it was 102%. Also, the viability at 10 µM in assay [1] (Homo sapiens, 72 h, read-out: cell viability, 501Mel XP, 10μΜ) worked out at 57.2%; in assay [2] (Homo sapiens, IGR-37, 72 h, read-out: cell viability, IGR37 GP, 10μΜ), 33%; in [3] (Homo sapiens, 72 h, read-out: cell viability, 501Mel Parental, 10μΜ), 87.3%; in [4] (Homo sapiens, 72 h, read-out: cell viability, 501Mel GP, 10μΜ), 86.4%; in [5] (Homo sapiens, IGR-37, 72 h, read-out: cell viability, IGR37 XP, 10μΜ) it was 11.7%; in assay [6] (Homo sapiens, A-375, 72 h, read-out: cell viability, A375 Parental, 10μΜ), 89.3%. The viability at 10 µM was found to be 85.8% in assay [7] (Homo sapiens, A-375, 72 h, read-out: cell viability, A375 XP, 10μΜ); 83.2% in assay [8] (Homo sapiens, A-375, 72 h, read-out: cell viability, A375 GP, 10μΜ); 85.9% in [9] (Homo sapiens, IGR-37, 72 h, read-out: cell viability, IGR37 Parental, 10μΜ).

For orientation: viability means a read-out of living cells in per cent, often relative to untreated cells.
